Where “and” joins values, the source holds several entries; their conditions need not be identical. Identical values can stand only once. Like-named read-outs stand apart in the source and are kept apart here.
How the values were obtained:
Cytotoxicity assay [1] = type: cell-based; settings: human, primary human hepatocytes
HIV-1IIIb = test: In vitro two-drug combination study in HIV-1IIIB-infected MT-2 cells
[2] = tested on: single-cycle reporter HIV-1; test: microbe, parasite or virus in culture; type: cell-based
HIV-1 = type: in vivo; settings: for Maximum HIV-1 RNA change through day 9: individual participants
Cytotoxicity assay [3] = type: cell-based; settings: human, Huh-7 cells
HIV-2 isolates = test: 7-day RT endpoint antiviral assay in human PBMCs, HIV-2 isolates; settings: Human immunodeficiency virus 2, PBMC, read-out: mean EC50
HIV-1 PR = HIV-1 PR (Human immunodeficiency virus type 1 group M subtype B, UniProt P04585); test: HIV-1 PR cleavage activity in vitro; type: biochemical
HIV-1 CA mutants = type: cell-based; settings: mutant/WT EC50 ratio
[4] = Study GS-US-200-4070: safety and tolerability in healthy participants; type: in vivo, human; settings: for Acne / Any AE / Back pain / Dizziness / Headache / Injection site bruising / Injection site erythema / Injection site induration / Injection site nodule / Injection site pain / Injection site pruritus / Injection site swelling / Nausea / Oropharyngeal pain / Skin mass / Viral upper respiratory tract infection: healthy
[5] = Study GS-US-200-4072: pharmacokinetics in participants living with HIV; type: in vivo, human; settings: for CD9 / paEC95 (mean), fold EC95 coverage on day 9: PLWH; for concentration at 9 day: both, human, plasma, sc
HIV-1 CA protein = type: biochemical; settings: 20 μM CA, 2 M NaCl
CA pentamer = CA pentamer (Human immunodeficiency virus type 1 group M subtype B, UniProt P12493, A154C/M317A/N153C/W316A); test: biochemical; type: binding
Cytotoxicity assay [6] = type: cell-based; settings: human, MT-4 cells
[7] = tested on: HIV-1 recombinant strains resistant to NRTIs, NNRTIs, INSTIs, PIs or MIs; type: cell-based
clinical HIV-1 isolates = test: 7-day RT endpoint antiviral assay in human PBMCs, clinical HIV-1 isolates; settings: Human immunodeficiency virus 1, PBMC
Stimulated PBMCs = test: Cytotoxicity assay; type: cell-based, human; settings: PBMCs
Cytotoxicity assay [8] = type: cell-based, human; settings: human, stimulated PBMCs
Cytotoxicity assay [9] = type: cell-based; settings: human, primary CD4+ T-lymphocytes

For `CC(C)(C#Cc1ccc(-c2ccc(Cl)c3c(NS(C)(=O)=O)nn(CC(F)(F)F)c23)c([C@H](Cc2cc(F)cc(F)c2)NC(=O)Cn2nc(C(F)(F)F)c3c2C(F)(F)[C@@H]2C[C@H]32)n1)S(C)(=O)=O` [GS-6207], the CC50 (Cytotoxicity assay [1]) was > 50 µM, the Synergy volume (HIV-1IIIb) was 18 ± 8 μM^2.% and the EC50 ([2]; Human immunodeficiency virus 1) was 0.025 nM. The EC50 ([2]; Human immunodeficiency virus 1, HEK-293T) was 0.439 nM, the EC50 ([2]; Human immunodeficiency virus 1, MT2) was 0.023 nM and the “Maximum HIV-1 RNA change through day 9” value (HIV-1; 20 mg) was −0.83 log10 copies ml^−1 and −1.58 log10 copies ml^−1 and −1.74 log10 copies ml^−1 and −1.43 log10 copies ml^−1 and −1.33 log10 copies ml^−1 and −1.21 log10 copies ml^−1. The “Maximum HIV-1 RNA change through day 9” value (HIV-1; 50 mg) was −1.55 log10 copies ml^−1 and −1.61 log10 copies ml^−1 and −2.32 log10 copies ml^−1 and −1.16 log10 copies ml^−1 and −1.73 log10 copies ml^−1 and −2.39 log10 copies ml^−1, the “Maximum HIV-1 RNA change through day 9” value (HIV-1; 150 mg) was −2.06 log10 copies ml^−1 and −1.68 log10 copies ml^−1 and −1.86 log10 copies ml^−1 and −1.49 log10 copies ml^−1 and −1.87 log10 copies ml^−1 and −1.62 log10 copies ml^−1 and the “Maximum HIV-1 RNA change through day 9” value (HIV-1; 450 mg) was −2.32 log10 copies ml^−1 and −2.86 log10 copies ml^−1 and −2.11 log10 copies ml^−1 and −1.83 log10 copies ml^−1 and −1.58 log10 copies ml^−1 and −2.52 log10 copies ml^−1. For the same molecule, the “mean maximum reduction in plasma HIV-1 RNA through 9 days” value (shortened to “mean maximum reduction”) (HIV-1; single 20 mg SC) was 1.35 log10, the “mean maximum reduction” value (HIV-1; single 50 mg SC) was 1.79 log10 and the “mean maximum reduction” value (HIV-1; single 150 mg SC) was 1.76 log10. For the same molecule, the “mean maximum reduction” value (HIV-1; single 450 mg SC) was 2.20 log10 and 2.2 log10, the CC50 (Cytotoxicity assay [3]) was > 44.4 µM and the EC50 (HIV-2 isolates) was 0.885 nM. For the same molecule, the IC50 (HIV-1 PR) was > 50 µM, the “Fold GS-6207 resistance” value (HIV-1 CA mutants; HIV-1 CA K70N) was 24 and the “Fold GS-6207 resistance” value (HIV-1 CA mutants; HIV-1 CA L56I) was 239. The “Fold GS-6207 resistance” value (HIV-1 CA mutants; HIV-1 CA M66I) was >3,226, the “Fold GS-6207 resistance” value (HIV-1 CA mutants; HIV-1 CA N74D) was 22 and the “Fold GS-6207 resistance” value (HIV-1 CA mutants; HIV-1 CA Q67H) was 6. For the same molecule, the “Fold GS-6207 resistance” value (HIV-1 CA mutants; HIV-1 CA WT) was 1, the Acne ([4]; 30 mg (n = 8)) was 0 n (%) and the “Any AE” value ([4]; 30 mg (n = 8)) was 4 (50) n (%). For the same molecule, the Back pain ([4]; 30 mg (n = 8)) was 0 n (%), the Dizziness ([4]; 30 mg (n = 8)) was 0 n (%) and the Headache ([4]; 30 mg (n = 8)) was 2 (25) n (%). For the same molecule, the Injection site bruising ([4]; 30 mg (n = 8)) was 0 n (%), the Injection site erythema ([4]; 30 mg (n = 8)) was 1 (13) n (%) and the Injection site induration ([4]; 30 mg (n = 8)) was 0 n (%). The Injection site nodule ([4]; 30 mg (n = 8)) was 0 n (%), the Injection site pain ([4]; 30 mg (n = 8)) was 0 n (%) and the Injection site pruritus ([4]; 30 mg (n = 8)) was 1 (13) n (%). The Injection site swelling ([4]; 30 mg (n = 8)) was 1 (13) n (%), the Nausea ([4]; 30 mg (n = 8)) was 1 (13) n (%) and the Oropharyngeal pain ([4]; 30 mg (n = 8)) was 1 (13) n (%). The Skin mass ([4]; 30 mg (n = 8)) was 0 n (%), the “Viral upper respiratory tract infection” value ([4]; 30 mg (n = 8)) was 0 n (%) and the Acne ([4]; 100 mg (n = 8)) was 0 n (%). For the same molecule, the “Any AE” value ([4]; 100 mg (n = 8)) was 8 (100) n (%), the Back pain ([4]; 100 mg (n = 8)) was 0 n (%) and the Dizziness ([4]; 100 mg (n = 8)) was 0 n (%). The Headache ([4]; 100 mg (n = 8)) was 1 (13) n (%), the Injection site bruising ([4]; 100 mg (n = 8)) was 0 n (%) and the Injection site erythema ([4]; 100 mg (n = 8)) was 5 (63) n (%). For the same molecule, the Injection site induration ([4]; 100 mg (n = 8)) was 0 n (%), the Injection site nodule ([4]; 100 mg (n = 8)) was 5 (63) n (%) and the Injection site pain ([4]; 100 mg (n = 8)) was 3 (38) n (%). For the same molecule, the Injection site pruritus ([4]; 100 mg (n = 8)) was 0 n (%), the Injection site swelling ([4]; 100 mg (n = 8)) was 5 (63) n (%) and the Nausea ([4]; 100 mg (n = 8)) was 0 n (%). The Oropharyngeal pain ([4]; 100 mg (n = 8)) was 0 n (%), the Skin mass ([4]; 100 mg (n = 8)) was 0 n (%) and the “Viral upper respiratory tract infection” value ([4]; 100 mg (n = 8)) was 0 n (%). For the same molecule, the Acne ([4]; 300 mg (n = 8)) was 0 n (%), the “Any AE” value ([4]; 300 mg (n = 8)) was 7 (88) n (%) and the Back pain ([4]; 300 mg (n = 8)) was 2 (25) n (%). For the same molecule, the Dizziness ([4]; 300 mg (n = 8)) was 1 (13) n (%), the Headache ([4]; 300 mg (n = 8)) was 2 (25) n (%) and the Injection site bruising ([4]; 300 mg (n = 8)) was 1 (13) n (%). For the same molecule, the Injection site erythema ([4]; 300 mg (n = 8)) was 6 (75) n (%), the Injection site induration ([4]; 300 mg (n = 8)) was 6 (75) n (%) and the Injection site nodule ([4]; 300 mg (n = 8)) was 3 (38) n (%). The Injection site pain ([4]; 300 mg (n = 8)) was 6 (75) n (%), the Injection site pruritus ([4]; 300 mg (n = 8)) was 1 (13) n (%) and the Injection site swelling ([4]; 300 mg (n = 8)) was 1 (13) n (%). For the same molecule, the Nausea ([4]; 300 mg (n = 8)) was 1 (13) n (%), the Oropharyngeal pain ([4]; 300 mg (n = 8)) was 0 n (%) and the Skin mass ([4]; 300 mg (n = 8)) was 1 (13) n (%). The “Viral upper respiratory tract infection” value ([4]; 300 mg (n = 8)) was 0 n (%), the Acne ([4]; 450 mg (n = 8)) was 2 (25) n (%) and the “Any AE” value ([4]; 450 mg (n = 8)) was 6 (75) n (%). The Back pain ([4]; 450 mg (n = 8)) was 0 n (%), the Dizziness ([4]; 450 mg (n = 8)) was 1 (13) n (%) and the Headache ([4]; 450 mg (n = 8)) was 0 n (%). The Injection site bruising ([4]; 450 mg (n = 8)) was 0 n (%), the Injection site erythema ([4]; 450 mg (n = 8)) was 3 (38) n (%) and the Injection site induration ([4]; 450 mg (n = 8)) was 2 (25) n (%). For the same molecule, the Injection site nodule ([4]; 450 mg (n = 8)) was 1 (13) n (%), the Injection site pain ([4]; 450 mg (n = 8)) was 3 (38) n (%) and the Injection site pruritus ([4]; 450 mg (n = 8)) was 1 (13) n (%). For the same molecule, the Injection site swelling ([4]; 450 mg (n = 8)) was 0 n (%), the Nausea ([4]; 450 mg (n = 8)) was 0 n (%) and the Oropharyngeal pain ([4]; 450 mg (n = 8)) was 0 n (%). For the same molecule, the Skin mass ([4]; 450 mg (n = 8)) was 1 (13) n (%), the “Viral upper respiratory tract infection” value ([4]; 450 mg (n = 8)) was 2 (25) n (%) and the safety and tolerability ([4]; single SC 30 to 450 mg, healthy participants) was “generally safe and well tolerated”. For the same molecule, the “CD9 / paEC95 (mean), fold EC95 coverage on day 9” value ([5]; 20 mg SC) was 0.67, the “CD9 / paEC95 (mean), fold EC95 coverage on day 9” value ([5]; 50 mg SC) was 1.14 and the “CD9 / paEC95 (mean), fold EC95 coverage on day 9” value ([5]; 150 mg SC) was 3.33. For the same molecule, the “CD9 / paEC95 (mean), fold EC95 coverage on day 9” value ([5]; 450 mg SC) was 9.87, the concentration at 9 day ([5]; 20 mg) was 2.58 ng/mL and the concentration at 9 day ([5]; 50 mg) was 4.4 ng/mL. The concentration at 9 day ([5]; 150 mg) was 12.9 ng/mL, the concentration at 9 day ([5]; 450 mg) was 38.2 ng/mL and the “rate and extent of in vitro capsid assembly” value (HIV-1 CA protein) was “dose-dependent increase in the rate and extent of in vitro capsid assembly”. For the same molecule, the Kd (CA pentamer) was 0.22 ± 0.16 nM, the koff (CA pentamer; CA pentamer) was 2.7 ± 0.4 x 10^−5 s^−1 and the kon (CA pentamer; CA pentamer) was 2 ± 1 x 10^5 M^−1s^−1. For the same molecule, the CC50 (Cytotoxicity assay [6]) was 24.7 ± 18.3 µM, the Fold resistance ([7]; HIV-1 mutant 6TAMs (NRTI)) was 0.2 ± 0.1 (3) and the Fold resistance ([7]; HIV-1 mutant E92Q+N155H (INSTI)) was 0.8 ± 0.4 (3). For the same molecule, the Fold resistance ([7]; HIV-1 mutant E138K+Q148K (INSTI)) was 0.6 ± 0.3 (3), the Fold resistance ([7]; HIV-1 mutant G48V+V82A+L90M (PI)) was 0.5 ± 0.2 (3) and the Fold resistance ([7]; HIV-1 mutant G48V+V82S (PI)) was 0.4 ± 0.2 (3). For the same molecule, the Fold resistance ([7]; HIV-1 mutant G140S+Q148R (INSTI)) was 0.8 ± 0.3 (3), the Fold resistance ([7]; HIV-1 mutant I84V+L90M (PI)) was 0.3 ± 0.1 (3) and the Fold resistance ([7]; HIV-1 mutant K65R (NRTI)) was 0.6 ± 0.2 (3). The Fold resistance ([7]; HIV-1 mutant K103N+Y181C (NNRTI)) was 0.6 ± 0.2 (3), the Fold resistance ([7]; HIV-1 mutant L100I+K103N (NNRTI)) was 0.5 ± 0.2 (3) and the Fold resistance ([7]; HIV-1 mutant M46I+I50V (PI)) was 0.7 ± 0.2 (3). The Fold resistance ([7]; HIV-1 mutant M184V (NRTI)) was 0.3 ± 0.3 (3), the Fold resistance ([7]; HIV-1 mutant N155H+Q148R (INSTI)) was 1.2 ± 0.7 (3) and the Fold resistance ([7]; HIV-1 mutant V7A in SP1 (MI)) was 0.8 ± 0.4 (8). The Fold resistance ([7]; HIV-1 mutant V230I in CA (MI)) was 0.7 ± 0.2 (6), the Fold resistance ([7]; HIV-1 mutant Y188L (NNRTI)) was 0.5 ± 0.1 (3) and the EC50 (clinical HIV-1 isolates; read-out: EC50 range) was 0.02 to 0.16 nM. For the same molecule, the EC50 (clinical HIV-1 isolates; read-out: mean EC50) was 0.05 nM, the “therapeutic index (CC50/EC50)” value (Stimulated PBMCs) was > 1,000,000 and the CC50 (Cytotoxicity assay [8]) was > 50 µM. The CC50 (Cytotoxicity assay [9]) was > 50 µM.
